In the NIST ThermoML archive (doi:10.1021/je034093m):
“And” between values parts separate entries of the source, which are not always exact repeats. Identical values can stand only once. ± gives the expanded uncertainty stated by the source.

Conditions: Capillary rise

CC(C)C [2-methylpropane]
Conditions | surface tension liquid-gas
255.02 K | 14.85 ± 0.16 mN/m
256.94 K | 14.69 ± 0.16 mN/m
258.83 K | 14.36 ± 0.16 mN/m and 14.37 ± 0.16 mN/m
261.09 K | 14.17 ± 0.16 mN/m
262.95 K | 14.02 ± 0.16 mN/m and 14.03 ± 0.16 mN/m
264.86 K | 13.7 ± 0.16 mN/m and 13.72 ± 0.16 mN/m
267.09 K | 13.46 ± 0.16 mN/m and 13.44 ± 0.16 mN/m
268.86 K | 13.16 ± 0.16 mN/m
270.9 K | 12.95 ± 0.16 mN/m and 12.97 ± 0.16 mN/m
273.38 K | 12.68 ± 0.16 mN/m
275.39 K | 12.57 ± 0.16 mN/m and 12.6 ± 0.16 mN/m
277.16 K | 12.29 ± 0.16 mN/m
279.34 K | 12.06 ± 0.16 mN/m
281.3 K | 11.77 ± 0.16 mN/m and 11.75 ± 0.16 mN/m
283.29 K | 11.62 ± 0.16 mN/m
285.43 K | 11.28 ± 0.16 mN/m
287.5 K | 11.14 ± 0.16 mN/m and 11.13 ± 0.16 mN/m
289.31 K | 10.86 ± 0.16 mN/m
291.65 K | 10.74 ± 0.16 mN/m and 10.72 ± 0.16 mN/m
293.66 K | 10.5 ± 0.16 mN/m
295.75 K | 10.28 ± 0.16 mN/m
297.83 K | 10.01 ± 0.16 mN/m and 10.05 ± 0.16 mN/m
299.48 K | 9.84 ± 0.16 mN/m
301.43 K | 9.57 ± 0.16 mN/m and 9.6 ± 0.16 mN/m
303.91 K | 9.37 ± 0.16 mN/m and 9.38 ± 0.16 mN/m
305.75 K | 9.14 ± 0.16 mN/m
307.41 K | 8.98 ± 0.16 mN/m
309.49 K | 8.75 ± 0.16 mN/m and 8.77 ± 0.16 mN/m
311.81 K | 8.52 ± 0.16 mN/m and 8.51 ± 0.16 mN/m
313.49 K | 8.29 ± 0.16 mN/m and 8.31 ± 0.16 mN/m
315.82 K | 8.05 ± 0.16 mN/m and 8.09 ± 0.16 mN/m
317.75 K | 7.9 ± 0.16 mN/m and 7.91 ± 0.16 mN/m
319.32 K | 7.69 ± 0.16 mN/m and 7.68 ± 0.16 mN/m
321.96 K | 7.45 ± 0.16 mN/m and 7.46 ± 0.16 mN/m
323.71 K | 7.25 ± 0.16 mN/m and 7.22 ± 0.16 mN/m
325.37 K | 7.02 ± 0.16 mN/m and 7.04 ± 0.16 mN/m
327.8 K | 6.79 ± 0.16 mN/m and 6.81 ± 0.16 mN/m
329.49 K | 6.71 ± 0.16 mN/m
331.68 K | 6.42 ± 0.16 mN/m
333.28 K | 6.29 ± 0.16 mN/m

CCC [propane]
Conditions | surface tension liquid-gas
253.08 K | 12.98 ± 0.16 mN/m
254.8 K | 12.7 ± 0.16 mN/m and 12.69 ± 0.16 mN/m
256.89 K | 12.38 ± 0.16 mN/m
258.68 K | 12.21 ± 0.16 mN/m and 12.2 ± 0.16 mN/m
260.71 K | 11.94 ± 0.16 mN/m and 11.97 ± 0.16 mN/m
262.7 K | 11.56 ± 0.16 mN/m and 11.58 ± 0.16 mN/m
265.09 K | 11.31 ± 0.16 mN/m and 11.32 ± 0.16 mN/m
267.09 K | 11.06 ± 0.16 mN/m and 11.05 ± 0.16 mN/m
268.88 K | 10.81 ± 0.16 mN/m
270.72 K | 10.52 ± 0.16 mN/m and 10.53 ± 0.16 mN/m
273.2 K | 10.17 ± 0.16 mN/m
275.38 K | 9.97 ± 0.16 mN/m
277.43 K | 9.71 ± 0.16 mN/m
279.39 K | 9.4 ± 0.16 mN/m
281.48 K | 9.14 ± 0.16 mN/m and 9.15 ± 0.16 mN/m
289.27 K | 8.14 ± 0.16 mN/m and 8.15 ± 0.16 mN/m
293.85 K | 7.49 ± 0.16 mN/m
295.73 K | 7.23 ± 0.16 mN/m
297.4 K | 7.04 ± 0.16 mN/m
299.41 K | 6.85 ± 0.16 mN/m and 6.87 ± 0.16 mN/m
301.45 K | 6.62 ± 0.16 mN/m
303.54 K | 6.33 ± 0.16 mN/m and 6.34 ± 0.16 mN/m
305.17 K | 6.21 ± 0.16 mN/m and 6.22 ± 0.16 mN/m
308.01 K | 5.86 ± 0.16 mN/m
310.73 K | 5.55 ± 0.16 mN/m
314.39 K | 5.06 ± 0.16 mN/m
315.71 K | 4.85 ± 0.16 mN/m and 4.84 ± 0.16 mN/m
317.64 K | 4.62 ± 0.16 mN/m and 4.63 ± 0.16 mN/m
319.43 K | 4.42 ± 0.16 mN/m
321.41 K | 4.25 ± 0.16 mN/m and 4.26 ± 0.16 mN/m
323.34 K | 4.01 ± 0.16 mN/m and 4.02 ± 0.16 mN/m
325.32 K | 3.8 ± 0.16 mN/m and 3.81 ± 0.16 mN/m
327.4 K | 3.6 ± 0.16 mN/m and 3.62 ± 0.16 mN/m
329.79 K | 3.32 ± 0.16 mN/m and 3.31 ± 0.16 mN/m
331.79 K | 3.12 ± 0.16 mN/m and 3.13 ± 0.16 mN/m
333.3 K | 2.94 ± 0.15 mN/m and 2.95 ± 0.15 mN/m
